Activity calls are given as the source filed them. Rule as the data show it, for most assays here: actives have a measured IC50 and inactives only a lower limit.
Assays:
[1] = molecular target: T1, Caspase-3 (Homo sapiens, UniProt P42574); format: functional;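 also: Dose-response selectivity test against caspase-3 for candidate inhibitors of sentrin-specific proteases (SENPs)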
T1 sequence (P42574 whole entry): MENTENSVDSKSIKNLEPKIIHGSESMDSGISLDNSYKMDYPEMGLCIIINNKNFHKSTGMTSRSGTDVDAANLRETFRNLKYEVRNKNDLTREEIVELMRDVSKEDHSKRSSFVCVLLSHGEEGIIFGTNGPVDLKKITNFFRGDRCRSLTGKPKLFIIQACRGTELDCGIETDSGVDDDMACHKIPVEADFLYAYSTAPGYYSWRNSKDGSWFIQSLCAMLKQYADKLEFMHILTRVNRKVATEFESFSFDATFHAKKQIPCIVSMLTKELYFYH

[2] = cells; format: functional, cell-based
[3] = cells; format: functional, cell-based; remark: listed apart in the source
[4] = molecular target: T2, Sentrin-specific protease 8 (Homo sapiens, UniProt Q96LD8); format: functional;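 also: luminescence read-out of SENP8 inhibition, dose-response confirmation following an ultra-high-throughput screen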
T2 sequence (Q96LD8 whole entry): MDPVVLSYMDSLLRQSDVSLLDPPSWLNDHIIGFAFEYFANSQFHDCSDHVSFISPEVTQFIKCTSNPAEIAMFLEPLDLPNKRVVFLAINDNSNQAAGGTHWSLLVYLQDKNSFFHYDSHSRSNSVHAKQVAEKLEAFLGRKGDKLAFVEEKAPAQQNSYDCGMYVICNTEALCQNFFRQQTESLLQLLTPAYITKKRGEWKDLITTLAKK

[5] = molecular target: T3, Sentrin-specific protease 6 (Homo sapiens, UniProt Q9GZR1); format: functional;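 also: Luminescence-based dose-response confirmatory assay of SENP6 inhibition, following up an ultra-high-throughput screen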
T3 sequence (Q9GZR1 whole entry): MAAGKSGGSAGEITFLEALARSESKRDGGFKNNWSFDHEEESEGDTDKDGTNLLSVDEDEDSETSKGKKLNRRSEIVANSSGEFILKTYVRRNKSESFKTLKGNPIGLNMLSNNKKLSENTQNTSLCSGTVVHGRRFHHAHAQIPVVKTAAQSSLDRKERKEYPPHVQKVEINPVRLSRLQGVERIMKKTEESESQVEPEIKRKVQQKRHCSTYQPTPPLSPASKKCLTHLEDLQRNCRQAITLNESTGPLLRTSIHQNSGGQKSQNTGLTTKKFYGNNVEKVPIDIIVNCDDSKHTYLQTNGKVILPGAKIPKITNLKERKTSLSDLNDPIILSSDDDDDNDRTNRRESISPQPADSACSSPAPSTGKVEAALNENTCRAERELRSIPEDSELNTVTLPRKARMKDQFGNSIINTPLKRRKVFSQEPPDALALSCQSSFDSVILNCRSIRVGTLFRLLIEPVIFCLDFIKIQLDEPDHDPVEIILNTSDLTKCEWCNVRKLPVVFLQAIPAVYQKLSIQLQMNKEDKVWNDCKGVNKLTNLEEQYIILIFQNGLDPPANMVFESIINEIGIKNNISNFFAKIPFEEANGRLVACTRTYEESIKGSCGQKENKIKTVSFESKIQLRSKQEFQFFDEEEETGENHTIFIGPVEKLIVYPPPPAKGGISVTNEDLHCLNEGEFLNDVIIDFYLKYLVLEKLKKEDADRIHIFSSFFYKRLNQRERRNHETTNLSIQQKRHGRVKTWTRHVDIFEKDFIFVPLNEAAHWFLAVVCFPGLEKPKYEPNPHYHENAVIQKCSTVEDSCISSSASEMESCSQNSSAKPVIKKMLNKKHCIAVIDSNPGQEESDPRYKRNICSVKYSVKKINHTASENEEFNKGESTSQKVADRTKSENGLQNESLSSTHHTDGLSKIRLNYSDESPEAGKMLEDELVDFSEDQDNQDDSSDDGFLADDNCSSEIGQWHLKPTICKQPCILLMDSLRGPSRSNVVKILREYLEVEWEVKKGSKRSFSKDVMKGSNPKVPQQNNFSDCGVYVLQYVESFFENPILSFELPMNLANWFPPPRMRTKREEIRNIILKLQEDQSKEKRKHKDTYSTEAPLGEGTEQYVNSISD

[6] = molecular target: T4, Sentrin-specific protease 7 (Homo sapiens, UniProt Q9BQF6); format: functional;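 also: Luminescence-based dose-response confirmation of ultra-high-throughput screening hits, measuring inhibition of SENP7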
T4 sequence (Q9BQF6 whole entry): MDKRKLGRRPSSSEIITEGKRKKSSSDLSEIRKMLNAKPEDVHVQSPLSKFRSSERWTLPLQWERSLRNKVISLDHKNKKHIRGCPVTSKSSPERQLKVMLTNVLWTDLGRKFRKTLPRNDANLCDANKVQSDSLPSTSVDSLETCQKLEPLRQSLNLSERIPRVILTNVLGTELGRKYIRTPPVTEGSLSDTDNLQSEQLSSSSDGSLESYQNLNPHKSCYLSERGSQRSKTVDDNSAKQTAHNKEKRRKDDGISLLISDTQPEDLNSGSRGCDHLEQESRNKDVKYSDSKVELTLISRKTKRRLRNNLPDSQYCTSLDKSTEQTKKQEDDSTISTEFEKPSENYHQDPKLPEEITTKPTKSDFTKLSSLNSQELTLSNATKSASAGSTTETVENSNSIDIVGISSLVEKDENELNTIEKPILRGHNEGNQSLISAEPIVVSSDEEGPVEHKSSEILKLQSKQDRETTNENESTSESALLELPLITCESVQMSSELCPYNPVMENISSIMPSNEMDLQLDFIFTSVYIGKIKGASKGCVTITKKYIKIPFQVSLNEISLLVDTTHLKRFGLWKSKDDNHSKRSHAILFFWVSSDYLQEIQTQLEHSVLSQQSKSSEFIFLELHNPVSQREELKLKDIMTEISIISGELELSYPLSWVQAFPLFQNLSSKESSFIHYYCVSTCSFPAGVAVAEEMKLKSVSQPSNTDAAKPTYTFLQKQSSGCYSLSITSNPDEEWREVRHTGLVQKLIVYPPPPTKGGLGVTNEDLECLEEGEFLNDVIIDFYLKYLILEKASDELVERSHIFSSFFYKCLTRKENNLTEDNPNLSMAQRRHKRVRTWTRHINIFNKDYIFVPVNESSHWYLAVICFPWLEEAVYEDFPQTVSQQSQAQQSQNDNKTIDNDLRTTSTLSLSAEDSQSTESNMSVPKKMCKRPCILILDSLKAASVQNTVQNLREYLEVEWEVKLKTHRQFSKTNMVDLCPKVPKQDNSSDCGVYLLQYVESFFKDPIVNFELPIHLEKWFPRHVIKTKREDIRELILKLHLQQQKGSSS

[7] = molecular target: Heat shock protein HSP 90-alpha (Homo sapiens, UniProt P07900); format: functional, organism-based
[8] = molecular target: T3, Sentrin-specific protease 6; experiment: SENP6 protease inhibitors, SAR follow-up, biochemical, luminescence, set 2 (AID 588598); format: functional
[9] = molecular target: T4, Sentrin-specific protease 7; experiment: SENP7 protease inhibitors, SAR follow-up, biochemical, luminescence, set 2 (AID 588600); format: functional
[10] = molecular target: T2, Sentrin-specific protease 8; experiment: SENP8 protease inhibitors, SAR follow-up, biochemical, luminescence, set 2 (AID 588601); format: functional
[11] = molecular target: T1, Caspase-3; experiment: caspase-3 inhibitors as off-family protease, SAR follow-up, selectivity assay for SENP protease inhibitor project, biochemical, luminescence, set 2 (AID 588599); format: functional

Row | IC50 [8] | IC50 [9] | IC50 [11] | Compound | IC50 [1] | EC50 [2] | EC50 [3] | IC50 [4] | IC50 [5] | IC50 [6] | AC50 [7] | IC50 [10]
1 |  |  |  | CCCCNc1nc(N)nc(-c2cc(Cl)ccc2O)n1 | 44.1 µM (active) | 3.49 µM (active) | > 350 µM (not active) | > 100 µM (inactive) | > 100 µM (inactive) | 4.54 µM (active) | 4.87 µM (active) | 
2 | > 99 µM (inactive) | > 99 µM (inactive) | > 99 µM (inactive) | COc1ccc2nc(NC(=O)c3ccccc3NS(=O)(=O)c3ccc4c(c3)OCCO4)sc2c1 |  |  |  |  |  |  |  | > 99 µM (inactive)
